Reference: patent US5273974A, “Condensed heterocyclic compounds, their production and use” (priority 1990, dated 1993)
Counter-ions that a name gives are not always drawn.

Biological target: T1, Acetylcholinesterase (Rattus norvegicus, UniProt P37136)
T1 construct: S1 fraction of a homogenate of male Wistar rat cerebral cortex; from tissue; host or cells: male Wistar rat cerebral cortex, S1 fraction of homogenate
Assay: Cholinesterase inhibitory activity assayed with (acetyl-[3H])-acetylcholine (S1 fraction of male Wistar rat cerebral cortex homogenate)
Type: biochemical
Conditions: (acetyl-[3H])-acetylcholine substrate, 30 minutes incubation
Procedure: The cholinesterase inhibitory activity of the compound of the present invention was assayed with (acetyl-[3H])-acetylcholine. Thus, using the S1 fraction of a homogenate of male Wistar rat cerebral cortex as the cholinesterase source, (acetyl-[3H])-acetylcholine and the compound of the invention were added as the substrate and the test substance, respectively, and the mixture was incubated for 30 minutes. After the reaction was terminated, a toluene-based scintillant was added and, after shaking, the reaction product [3H]-acetic acid which was transferred to the toluene layer was determined with a scintillation counter to estimate the cholinesterase activity.

T1 sequence (P37136 32-614): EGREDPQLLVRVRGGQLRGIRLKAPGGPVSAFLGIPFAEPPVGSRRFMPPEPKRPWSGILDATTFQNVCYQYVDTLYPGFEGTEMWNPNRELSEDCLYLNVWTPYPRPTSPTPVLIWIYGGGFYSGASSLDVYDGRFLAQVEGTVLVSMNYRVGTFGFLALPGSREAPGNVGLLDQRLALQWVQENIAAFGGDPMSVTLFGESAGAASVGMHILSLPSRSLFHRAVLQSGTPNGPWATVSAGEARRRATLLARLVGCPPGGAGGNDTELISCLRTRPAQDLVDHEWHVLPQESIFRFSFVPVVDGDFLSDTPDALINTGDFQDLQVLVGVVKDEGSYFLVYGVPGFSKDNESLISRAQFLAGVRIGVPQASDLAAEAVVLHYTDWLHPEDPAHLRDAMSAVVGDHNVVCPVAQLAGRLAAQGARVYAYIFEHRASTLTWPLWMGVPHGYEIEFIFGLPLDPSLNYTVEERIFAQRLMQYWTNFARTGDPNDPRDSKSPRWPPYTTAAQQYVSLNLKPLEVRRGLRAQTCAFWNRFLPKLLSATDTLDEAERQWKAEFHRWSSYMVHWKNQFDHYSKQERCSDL

| SMILES | IC50 [nM] |
| --- | --- |
| O=C(CCC1CCN(Cc2ccccc2)CC1)c1ccc2c(c1)NCCCC2 [19-16] | 102 |
| O=C(CCC1CCN(Cc2ccccc2)CC1)c1ccc2c(c1)CCCN2 [Example 2, 6-[1-Oxo-3-[1-(phenylmethyl)piperidin-4-yl]propyl]-1,2,3,4-tetrahydroquinoline dihydrochloride] | 14 |
| O=C(CCC1CCN(Cc2ccccc2)CC1)c1ccc2c(c1)CCCN2Cc1ccccc1 [Example 3, 1-(Phenylmethyl)-6-[3-[1-(phenylmethyl)piperidin-4-yl]-1-oxopropyl]-1,2,3,4-tetrahydroquinoline dihydrochloride] | 120 |
| CN1CCCc2cc(C(=O)CCC3CCN(Cc4ccccc4)CC3)ccc21 [Example 4, 1-Methyl-6-[3-[1-(phenylmethyl)piperidin-4-yl]-1-oxopropyl]-1,2,3,4-tetrahydroquinoline dihydrochloride] | 10 |
| O=C(CCC1CCN(Cc2ccccc2)CC1)c1ccc2c(c1)CCCN2 [Example 6-A, 6-[1-Oxo-3-[1-(phenylmethyl)piperidin-4-yl]propyl]-1,2,3,4-tetrahydroquinoline fumarate] | 54 |
| O=C(CCC1CCN(Cc2ccccc2)CC1)c1ccc2c(c1)NCCC2 [Example 6-B, 7-[1-Oxo-3-[1-(phenylmethyl)piperidin-4-yl]propyl]-1,2,3,4-tetrahydroquinoline fumarate] | 54 |
| CN1CCCc2cc(C(=O)CCC3CCN(Cc4ccccc4)CC3)ccc21 [Example 8-A, 1-Methyl-6-[1-oxo-3-[1-(phenylmethyl)piperidin-4-yl]-propyl]-1,2,3,4-tetrahydroquinoline fumarate] | 24 |
| CN1CCCc2ccc(C(=O)CCC3CCN(Cc4ccccc4)CC3)cc21 [Example 8-B, 1-methyl-7-[1-oxo-3-[1-(phenylmethyl)piperidin-4-yl]propyl]-1,2,3,4-tetrahydroquinoline fumarate] | 36 |
| O=C(CCC1CCN(Cc2ccccc2)CC1)c1ccc2c(c1)CCCN2Cc1ccccc1 [Example 10, 1-(Phenylmethyl)-6-[1-oxo-3-[1-(phenylmethyl)piperidin-4-yl]propyl]-1,2,3,4-tetrahydroquinoline fumarate] | 160 |
| O=C(CCC1CCN(Cc2ccccc2)CC1)c1ccc2c(c1)CCN2 [Example 13, 2,3-Dihydro-5-[1-oxo-3-[1-(phenylmethyl)piperidin-4-yl]propyl]-1H-indole fumarate] | 20 |
| CN1CCc2cc(C(=O)CCC3CCN(Cc4ccccc4)CC3)ccc21 [Example 14, 2,3-Dihydro-1-methyl-5-[1-oxo-3-[1-(phenylmethyl)-piperidin-4-yl]propyl]-1H-indole fumarate] | 10 |
| O=C(CCC1CCN(Cc2ccccc2)CC1)c1ccc2c(c1)CCN2Cc1ccccc1 [Example 15, 2,3-Dihydro-5-[1-oxo-3-[1-(phenylmethyl)piperidin-4-yl]propyl]-1-(phenylmethyl)-1H-indole fumarate] | 68 |
| CC(=O)N1CCCc2cc(C(=O)CCC3CCN(Cc4ccccc4)CC3)ccc21 [Example 16, 1-Acetyl-6-[1-oxo-3-[1-(phenylmethyl)piperidin-4-yl]propyl]-1,2,3,4-tetrahydroquinoline fumarate] | 14 |
| Cc1cccc(CN2CCC(CCC(=O)c3ccc4c(c3)CCN4)CC2)c1 [Example 19-7] | 50 |
| O=C(CCC1CCN(Cc2cccc(F)c2)CC1)c1ccc2c(c1)CCN2 [Example 19-8] | 16 |
| CCN1CCc2cc(C(=O)CCC3CCN(Cc4ccccc4)CC3)ccc21 [Example 19-11] | 11 |
| CCCN1CCc2cc(C(=O)CCC3CCN(Cc4ccccc4)CC3)ccc21 [Example 19-12] | 22 |
| CCCCN1CCc2cc(C(=O)CCC3CCN(Cc4ccccc4)CC3)ccc21 [Example 19-13] | 29 |
| CCCCCN1CCc2cc(C(=O)CCC3CCN(Cc4ccccc4)CC3)ccc21 [Example 19-14] | 47 |
| O=C(CCC1CCN(Cc2ccccc2)CC1)c1ccc2c(c1)CCN2CCc1ccccc1 [Example 19-15] | 28 |
| CN1CCCCc2ccc(C(=O)CCC3CCN(Cc4ccccc4)CC3)cc21 [Example 19-17] | 81 |
| O=C(CCC1CCN(Cc2ccccc2)CC1)c1ccc2c(c1)CCCCN2 [Example 19-20] | 125 |
| O=C(CCC1CCN(Cc2cccc(F)c2)CC1)c1ccc2c(c1)NCCCC2 [Example 19-21] | 145 |
| O=C(CCC1CCN(Cc2ccccc2)CC1)c1ccc2c(c1)CCO2 [Example 21, 2,3-Dihydro-5-[1-oxo-3-[1-(phenylmethyl)piperidin-4-yl]propyl]benzofuran hydrochloride] | 28 |
| O=C(CCC1CCN(Cc2ccccc2)CC1)c1ccc2c(c1)CCNCC2 [Example 22, 7-[1-Oxo-3-[1-(phenylmethyl)piperidin-4-yl]propyl]-2,3,4,5-tetrahydro-1H-3-benzazepine dihydrochloride] | 7.6 |
| CN1CCc2ccc(C(=O)CCC3CCN(Cc4ccccc4)CC3)cc2CC1 [Example 23, 3-Methyl-7-[1-oxo-3-[1-(phenylmethyl)piperidin-4-yl]-propyl-2,3,4,5-tetrahydro-1H-3-benzazepinedihydrochloride] | 6.5 |
| O=C(CCC1CCN(Cc2ccccc2)CC1)c1ccc2c(c1)NCC2 [Example 25, 2,3-Dihydro-6-[1-oxo-3-[1-(phenylmethyl)piperidin-4-yl]propyl]-1H-indole fumarate] | 113 |
| O=C(CCC1CCN(Cc2ccccc2)CC1)c1ccc2c(c1)NCCCCC2 [Example 27, 9-[1-Oxo-3-[1-(phenylmethyl)piperidin-4-yl]propyl]-1,2,3,4,5,6-hexahydro-1-benzazocine fumarate] | 127 |
